From ChEMBL document CHEMBL1201862, “PubChem BioAssay data set” (2004)
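Interpolation was linear, between the two tested concentrations surrounding the appropriate level; five concentrations were tested over 48 hours in 96-well plates. GI50: concentration for 50% inhibition of growth.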 Activity calls are given as the source filed them. Rule as the data show it: active = GI50 up to about 1.1 µM and inactive = higher.

How the values were obtained:
Test in all cases: NCI tumour cell line growth inhibition, 48 h
ACHN = test system: ACHN
BT-549 = test system: BT-549
COLO 205 = test system: COLO 205
EKVX = test system: EKVX
HT-29 = test system: HT-29
KM12 = test system: KM12
LOX IMVI = test system: LOX IMVI
M14 = test system: M14
MDA-MB-231 = test system: MDA-MB-231
NCI-H226 = test system: NCI-H226
NCI-H23 = test system: NCI-H23
NCI-H522 = test system: NCI-H522
PC-3 = test system: PC-3
SF-268 = test system: SF-268
SK-MEL-5 = test system: SK-MEL-5
SK-OV-3 = test system: SK-OV-3
SN12C = test system: SN12C
SNB-19 = test system: SNB-19
TK-10 = test system: TK-10
SNB-75 = test system: SNB-75

Compound	GI50 (ACHN)	GI50 (BT-549)	GI50 (COLO 205)	GI50 (EKVX)	GI50 (HT-29)	GI50 (KM12)	GI50 (LOX IMVI)	GI50 (M14)	GI50 (MDA-MB-231)	GI50 (NCI-H226)	GI50 (NCI-H23)	GI50 (NCI-H522)	GI50 (PC-3)	GI50 (SF-268)	GI50 (SK-MEL-5)	GI50 (SK-OV-3)	GI50 (SN12C)	GI50 (SNB-19)	GI50 (TK-10)	GI50 (SNB-75)
COc1ccc(C2c3cc4c(c(OC)c3CC3OCC(=O)C32)OCO4)cc1OC (configuration not stated)	< 0.01 µM (active)	0.0914 µM (active)	0.0267 µM (active)	0.0605 µM (active)	< 0.01 µM (active)	0.0318 µM (active)	0.0518 µM (active)	0.0482 µM (active)	0.209 µM (active)	0.0385 µM (active)	0.0365 µM (active)	< 0.01 µM (active)	0.0619 µM (active)	0.416 µM (active)	0.037 µM (active)	0.0405 µM (active)	< 0.01 µM (active)	0.0538 µM (active)	60.7 µM (inactive)	
CC(C)[C@H](O)C(=O)N[C@H]1Cc2ccc3c(c2)[C@]24C5=C(N=C(O5)[C@H](C(C)C)NC1=O)c1nc(Cl)c(o1)-c1c(Cl)[nH]c5cccc(c15)-c1cccc2c1N[C@H]4O3	0.0469 µM (active)	0.00863 µM (active)		0.224 µM (active)	0.0111 µM (active)	0.00607 µM (active)	0.00392 µM (active)	0.0311 µM (active)	0.015 µM (active)	0.00346 µM (active)	0.00625 µM (active)	0.0022 µM (active)	0.00393 µM (active)	0.00513 µM (active)	0.0103 µM (active)	0.001 µM (active)		0.00644 µM (active)	0.0818 µM (active)	
COC(=O)/C=C(\S/C(=C(/c1ccccc1)n1cc(C(=O)OC)c(C(=O)OC)n1)c1ccccc1)C(=O)OC	3.29 µM (inactive)	38.5 µM (inactive)	1.74 µM (inactive)	18.2 µM (inactive)	3.33 µM (inactive)	54.6 µM (inactive)	8.17 µM (inactive)	12.9 µM (inactive)	22 µM (inactive)	89.1 µM (inactive)	18.1 µM (inactive)		16.4 µM (inactive)	16.1 µM (inactive)	19.3 µM (inactive)	> 100 µM (inactive)	16.5 µM (inactive)	19.5 µM (inactive)	2.86 µM (inactive)	29.1 µM (inactive)
Cc1cc(S(=O)(=O)N2CCNNC2=O)c(S)cc1Cl	> 100 µM (inactive)	20.8 µM (inactive)	> 100 µM (inactive)	> 100 µM (inactive)		> 100 µM (inactive)	28.8 µM (inactive)	41.6 µM (inactive)	23.8 µM (inactive)	> 100 µM (inactive)		22.5 µM (inactive)	> 100 µM (inactive)	> 100 µM (inactive)	> 100 µM (inactive)		> 100 µM (inactive)	> 100 µM (inactive)	> 100 µM (inactive)	> 100 µM (inactive)
CN(C)CCCN1c2ccccc2CCc2ccc([N+](=O)[O-])cc21	34.6 µM (inactive)	27.9 µM (inactive)	13.6 µM (inactive)	69.3 µM (inactive)	19.1 µM (inactive)	18.1 µM (inactive)	16.1 µM (inactive)	15.4 µM (inactive)	39.2 µM (inactive)	26.2 µM (inactive)	27.2 µM (inactive)	17.5 µM (inactive)	34.8 µM (inactive)	29.6 µM (inactive)	15.8 µM (inactive)	37.2 µM (inactive)	22.8 µM (inactive)	45.1 µM (inactive)	18.7 µM (inactive)	
Cc1c(-c2nc(N)c(C#N)c(N)c2C#N)c(=O)oc2ccccc12	> 100 µM (inactive)	> 100 µM (inactive)	60.7 µM (inactive)	68.1 µM (inactive)	83 µM (inactive)	68.4 µM (inactive)	60.3 µM (inactive)	> 100 µM (inactive)	> 100 µM (inactive)	> 100 µM (inactive)	87.9 µM (inactive)		34.5 µM (inactive)	> 100 µM (inactive)	87.5 µM (inactive)	> 100 µM (inactive)	> 100 µM (inactive)	> 100 µM (inactive)	> 100 µM (inactive)	> 100 µM (inactive)
Cc1nc(N)c(N2CCN(C(=O)O)CC2)c(O)n1	> 100 µM (inactive)	> 100 µM (inactive)	> 100 µM (inactive)	> 100 µM (inactive)	> 100 µM (inactive)	> 100 µM (inactive)	> 100 µM (inactive)	> 100 µM (inactive)	> 100 µM (inactive)	> 100 µM (inactive)	> 100 µM (inactive)	> 100 µM (inactive)	> 100 µM (inactive)	> 100 µM (inactive)			> 100 µM (inactive)	> 100 µM (inactive)	> 100 µM (inactive)	> 100 µM (inactive)
c1ccc(C/C(=N\Nc2nc3ccccc3o2)c2ccccn2)cc1	0.0202 µM (active)	0.342 µM (active)	< 0.01 µM (active)	< 0.01 µM (active)	< 0.01 µM (active)	0.264 µM (active)	0.185 µM (active)	0.0382 µM (active)	0.126 µM (active)	< 0.0483 µM (active)	0.0382 µM (active)	0.191 µM (active)	< 0.01 µM (active)	0.0805 µM (active)	0.0769 µM (active)	0.0237 µM (active)	0.0569 µM (active)	0.2 µM (active)	0.0668 µM (active)	
